In patent US10023602B2, “Hamamelitannin analogues and uses thereof” (Universiteit Gent, priority 2014, dated 2018):

Experiments:
[1] = system: methicillin resistant S. aureus Mu50 strain (S. aureus ATCC700699) biofilm; experiment: Biofilm susceptibility to vancomycin, combination treatment regimen (mature biofilm treated with compound plus vancomycin); format: cell-based; details: for Combin. (25 μM): percentage Colony Forming Units (CFU's) per biofilm: compound 25 μM together with VAN 20 μg/ml on mature biofilm; for Combin. (25 μM): percentage Colony Forming Units (CFU's) per biofilm / Combin. (100 μM): percentage Colony Forming Units (CFU's) per biofilm: compared to the untreated (negative) control; for EC50: concentration needed to get 50% killing compared to antibiotic alone (VAN 20 μg/ml) and complete killing, read-out: Combin. (EC50); for Combin. (100 μM): percentage Colony Forming Units (CFU's) per biofilm: compound 100 μM together with VAN 20 μg/ml on mature biofilm
Method in brief: (§1)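 Mu50 biofilms from 10^8 CFU/ml inoculum (4 h adhesion, then 20 h, 37 °C). Pre-treatment: compound (0.1-250 μM) present during biofilm formation, then vancomycin 20 μg/ml alone 24 h; combination: mature biofilm given vancomycin 20 μg/ml plus compound 24 h. Survivors counted by plating versus vancomycin alone.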

[2] = system: methicillin resistant S. aureus Mu50 strain (S. aureus ATCC700699) biofilm; experiment: Biofilm susceptibility to vancomycin, pre-treatment regimen (biofilm formed in presence of compound, then vancomycin); format: cell-based; details: for Pretreat. (25 μM): percentage Colony Forming Units (CFU's) per biofilm: compound 25 μM during biofilm formation; for Pretreat. (25 μM): percentage Colony Forming Units (CFU's) per biofilm / Pretreat (100 μM): percentage Colony Forming Units (CFU's) per biofilm: then VAN 20 μg/ml, compared to the untreated (negative) control; for EC50: concentration needed to get 50% killing compared to antibiotic alone (VAN 20 μg/ml) and complete killing, read-out: Pretreat. (EC50); for Pretreat (100 μM): percentage Colony Forming Units (CFU's) per biofilm: compound 100 μM during biofilm formation
Method in brief: as §1

Compound	Combin. (25 μM): percentage Colony Forming Units (CFU's) per biofilm [1] [percentage]	Pretreat. (25 μM): percentage Colony Forming Units (CFU's) per biofilm [2] [percentage]	EC50 [1] [µM]	EC50 [2] [µM]	Combin. (100 μM): percentage Colony Forming Units (CFU's) per biofilm [1] [percentage]	Pretreat (100 μM): percentage Colony Forming Units (CFU's) per biofilm [2] [percentage]
O=C(NC[C@]1(O)CO[C@H](CNC(=O)c2ccccc2Cl)[C@H]1O)c1ccco1 [compound 246, N-(((3S,4R,5R)-5-((2-chlorobenzamido)methyl)-3,4-dihydroxytetrahydrofuran-3-yl)methyl)furan-2-carboxamide]	62.82	87.98				
O=C(NC[C@]1(O)CO[C@H](CNC(=O)c2ccccc2Cl)[C@H]1O)c1ccoc1 [compound 247, N-(((3S,4R,5R)-5-((2-chlorobenzamido)methyl)-3,4-dihydroxytetrahydrofuran-3-yl)methyl)furan-3-carboxamide]	49.94	42.14	76.7	68.5		
O=C(NC[C@]1(O)CO[C@H](CNC(=O)c2ccccc2Cl)[C@H]1O)c1cncnc1 [compound 248, N-(((3S,4R,5R)-5-((2-chlorobenzamido)methyl)-3,4-dihydroxytetrahydrofuran-3-yl)methyl)pyrimidine-5-carboxamide]	65.41	64.01				
O=C(NC[C@H]1OC[C@@](O)(CNC(=O)c2ccccc2Cl)[C@@H]1O)c1ccccc1Cl [compound 249, N,N′-(((2R,3R,4S)-3,4-dihydroxytetrahydrofuran-2,4-diyl)bis(methylene))bis(2-chlorobenzamide)]			28.4	5.36	13.59	6.67
O=C(NC[C@H]1OC[C@@](O)(CNC(=O)c2ccccc2Cl)[C@@H]1O)c1ccc(-c2ccccc2)cc1 [compound 250, N-(((2R,3R,4S)-4-((2-chlorobenzamido)methyl)-3,4-dihydroxytetrahydrofuran-2-yl)methyl)-[1,1′-biphenyl]-4-carboxamide]			61.3	23	29.48	18.82
O=C(NC[C@H]1OC[C@@](O)(CNC(=O)c2ccccc2Cl)[C@@H]1O)c1ccnnc1 [compound 251, N-(((2R,3R,4S)-4-((2-chlorobenzamido)methyl)-3,4-dihydroxytetrahydrofuran-2-yl)methyl)pyridazine-4-carboxamide]			98.9	3.38	37.03	3.85
O=C(NC[C@]1(O)CO[C@H](CNC(=O)c2ccccc2Cl)[C@H]1O)c1ccc(-c2ccccc2)cc1 [compound 252, N-(((3S,4R,5R)-5-((2-chlorobenzamido)methyl)-3,4-dihydroxytetrahydrofuran-3-yl)methyl)-[1,1′-biphenyl]-4-carboxamide]			69.2	11.8	29.40	2.25
O=C(NC[C@H]1OC[C@@](O)(CNC(=O)c2ccc(-c3ccccc3)cc2)[C@@H]1O)c1ccnnc1 [compound 253, N-(((2R,3R,4S)-4-([1,1′-biphenyl]-4-carboxamidomethyl)-3,4-dihydroxytetrahydrofuran-2-yl)methyl)pyridazine-4-carboxamide]			45.4	8.54	22.50	4.25
O=C(NC[C@]1(O)CO[C@H](CN2C(=O)c3ccccc3C2=O)[C@H]1O)c1ccc(-c2ccccc2)cc1 [compound 254, N-(((3S,4R,5R)-5-((1,3-dioxoisoindolin-2-yl)methyl)-3,4-dihydroxytetrahydrofuran-3-yl)methyl)-[1,1′-biphenyl]-4-carboxamide]			57.1	4.79	30.44	3.52
O=C(NC[C@]1(O)CO[C@H](CNC(=O)c2ccccc2Cl)[C@H]1O)c1ccnnc1 [compound 255, N-(((3S,4R,5R)-5-((2-chlorobenzamido)methyl)-3,4-dihydroxytetrahydrofuran-3-yl)methyl)pyridazine-4-carboxamide]			55.7	15	25.78	8.03
O=C(NC[C@H]1OC[C@@](O)(CNC(=O)c2ccnnc2)[C@@H]1O)c1ccc(-c2ccccc2)cc1 [compound 256, N-(((3S,4R,5R)-5-([1,1′-biphenyl]-4-carboxamidomethyl)-3,4-dihydroxytetrahydrofuran-3-yl)methyl)pyridazine-4-carboxamide]			53.4	15.5	29.97	14.25
O=C(NC[C@H]1OC[C@@](O)(CNC(=O)c2ccnnc2)[C@@H]1O)c1ccnnc1 [compound 257, N,N′-(((2R,3R,4S)-3,4-dihydroxytetrahydrofuran-2,4-diyl)bis(methylene))bis(pyridazine-4-carboxamide)]			18	7.13	17.13	1.71
O=C(NC[C@]1(O)CO[C@H](CN2C(=O)c3ccccc3C2=O)[C@H]1O)c1ccnnc1 [compound 258, N-(((3S,4R,5R)-5-((1,3-dioxoisoindolin-2-yl)methyl)-3,4-dihydroxytetrahydrofuran-3-yl)methyl)pyridazine-4-carboxamide]			11.4	5.85	23.56	0.73
O=C(Cc1ccccc1)NC[C@]1(O)CO[C@H](CNC(=O)c2ccccc2Cl)[C@H]1O [compound 259, 2-chloro-N-(((2R,3R,4S)-3,4-dihydroxy-4-((2-phenylacetamido)methyl)tetrahydrofuran-2-yl)methyl)benzamide]					71.25	55.12
O=C(CCc1ccccc1)NC[C@]1(O)CO[C@H](CNC(=O)c2ccccc2Cl)[C@H]1O [compound 260, 2-chloro-N-(((2R,3R,4S)-3,4-dihydroxy-4-((3-phenylpropanamido)methyl)tetrahydrofuran-2-yl)methyl)benzamide]					71.12	57.01
CN(C[C@H]1OC[C@@](O)(CNC(=O)c2ccccc2)[C@@H]1O)C(=O)c1ccccc1 [compound 261, N-(((2R,3R,4S)-4-(benzamidomethyl)-3,4-dihydroxytetrahydrofuran-2-yl)methyl)-N-methylbenzamide]			24.3	8.5	10.02	6.09
O=C(NC[C@H]1OC[C@@](O)(CNC(=O)c2cc(O)c(O)c(O)c2)[C@@H]1O)c1cc(O)c(O)c(O)c1 [compound 264, N,N′-(((2R,3R,4S)-3,4-dihydroxytetrahydrofuran-2,4-diyl)bis(methylene))bis(3,4,5-trihydroxybenzamide)]			191	63.8	57.74	22.35
O=C(NC[C@@H]1OC[C@@](O)(CNC(=O)c2ccccc2)[C@@H]1O)c1ccccc1 [compound 270, N,N′-(((2S,3R,4S)-3,4-dihydroxytetrahydrofuran-2,4-diyl)bis(methylene))dibenzamide]			> 250	224	55.70	51.80
